Results from patent US11066365B2, “1-cyano-pyrrolidine compounds as USP30 inhibitors” (Mission Therapeutics Limited, priority 2015, dated 2021).

Molecular target: USP30 (Homo sapiens (Human), UniProt Q70CQ3)
Assay: USP30 biochemical IC50 assay (fluorescence polarisation, FP)
Conditions: USP30 biochemical FP or FI IC50 assay (table does not say which format per compound); read-out: IC50 range
Procedure: In Vitro USP30 FP Inhibition Assay
USP30 Biochemical IC50 Assay
Dilution plates were prepared at 21 times the final concentration (2100 μM for a final concentration of 100 μM) in 50% DMSO in a 96-well polypropylene V-bottom plate (Greiner #651201). A typical 8-point dilution series would be 100, 30, 10, 3, 1, 0.3, 0.1, 0.03 μM final. Reactions were performed in duplicate in black 384 well plates (small volume, Greiner 784076) in a final reaction volume of 21 μl. Either 1 μl of 50% DMSO or diluted compound was added to the plate. USP30 was diluted in reaction buffer (40 mM Tris, pH 7.5, 0.005% Tween 20, 0.5 mg/ml BSA, 5 mM beta-mercaptoethanol) to the equivalent of 0.05 μl/well and 10 μl of diluted USP30 was added to the compound. Enzyme and compound were incubated for 30 min at room temp. Reactions were initiated by the addition of 50 nM of TAMRA labelled peptide linked to ubiquitin via an iso-peptide bond as fluorescence polarisation substrate. Reactions were read immediately after addition of substrate and following a 2 hr incubation at room temperature. Readings were performed on a Pherastar Plus (BMG Labtech).

USP30, sequence (Q70CQ3 57-517): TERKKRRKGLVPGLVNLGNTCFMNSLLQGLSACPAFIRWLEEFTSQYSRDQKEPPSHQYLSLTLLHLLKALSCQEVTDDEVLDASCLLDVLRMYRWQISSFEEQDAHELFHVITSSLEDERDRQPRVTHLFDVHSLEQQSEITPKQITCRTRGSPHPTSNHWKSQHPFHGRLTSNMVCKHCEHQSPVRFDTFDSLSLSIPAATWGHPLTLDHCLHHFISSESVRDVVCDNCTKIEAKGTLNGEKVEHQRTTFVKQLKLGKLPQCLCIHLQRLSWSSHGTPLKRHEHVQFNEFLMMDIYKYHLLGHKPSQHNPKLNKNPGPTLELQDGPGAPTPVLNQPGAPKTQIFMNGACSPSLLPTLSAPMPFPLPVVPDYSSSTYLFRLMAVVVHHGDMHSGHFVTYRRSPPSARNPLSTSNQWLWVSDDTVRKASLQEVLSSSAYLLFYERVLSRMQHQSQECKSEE

IC50: 100 to 1000 nM
Substance: rac-(3aR,6aR)-1-(3-phenyl-1H- pyrazole-5- carbonyl)hexahydropyrrolo[3,4- bipyrrole-5(1H)-carbonitrile [Example 52]
